The assay deals with T1, LH2 (light-harvesting 2 complex), B800 site; B850 LH2 when B800-depleted (Cereibacter sphaeroides, UniProt Q3J144+Q3J145).
T1 construct: gene pucA; native complex purified from Rba. sphaeroides membranes (LDAO, then beta-DDM); B800 BChl a removed with LDS for reconstitution; B850 BChl a and carotenoid retained; ring of nine alpha-beta pairs; R30L/R30F genomic at the puc1BA locus, R30E/R30M from pRK415 vectors, in delta-puc1BA delta-puc2BA delta-pufBALMX
Nature of the assay: reconstitution of B800-depleted LH2, absorption spectra. Particulars: 20 mM Tris pH 8, 0.5% beta-DDM, 12 uM pigment, room temperature. The format is binding.

The source of these data is article PMC6358721, “Engineering of B800 bacteriochlorophyll binding site specificity in the Rhodobacter sphaeroides LH2 antenna” (Biochimica et Biophysica Acta. Bioenergetics, 2019).

T1 sequence (Q3J144 whole entry): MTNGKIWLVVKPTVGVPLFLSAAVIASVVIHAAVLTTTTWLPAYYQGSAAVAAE
T1 sequence (Q3J145 2-51): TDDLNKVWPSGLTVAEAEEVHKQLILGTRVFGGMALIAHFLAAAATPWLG

Consider `C=Cc1c(C=O)c2[n]3c1C=C1N=C(C=c4c(C)c5c([n]4[Mg]3)=C(C3=NC(=C2)[C@@H](C)[C@@H]3CCC(=O)OC/C=C(\C)CCC[C@H](C)CCC[C@H](C)CCCC(C)C)[C@@H](C(=O)OC)C5=O)C(CC)=C1C` [Chl f], for which the “reconstitution of B800-depleted LH2, absorption spectra” value is “we generated additional novel reconstitutions using Chl f”.
